In patent US20250034154A1, “SALTS AND SOLID FORMS OF A COMPOUND THAT MODULATES IRAK4” (Gilead Sciences, Inc., priority 2023, published 2025):

Assay: Dynamic vapor sorption (DVS) hygroscopicity
Assay type: physicochemical
Procedure: Hygroscopicity was studied using dynamic vapor sorption (DVS, TA Q5000 SA, TA Instruments, New Castle, DE or DVS, DVS Intrinsic, Surface Measurement Systems, London, UK). A sample (2-20 mg) was placed in an aluminum DVS pan and loaded on the sample side of the twin pan balance. The water sorption and desorption were studied as a function of relative humidity (RH) at 25° C. In 10% RH increments, the relative humidity was increased from 5% RH to 95% RH and then decreased back to 5%. […] Data analysis was performed using Universal Analysis 2000 Version 4.7A (TA Instruments, New Castle, DE) for TA DVS runs and Microsoft Excel for SMS DVS runs.

Compound: C[C@H](C#N)Nc1cc(-c2ccc3cc(C#N)cnn23)ncc1C(=O)NC[C@@H](F)C(C)(C)O [Form IV, 4-(((R)-1-cyanoethyl)amino)-6-(3-cyanopyrrolo[1,2-b]pyridazin-7-yl)-N—((R)-2-fluoro-3-hydroxy-3-methylbutyl)nicotinamide]
- water absorbed (DVS analysis) (25° C. and 95% RH): less than 0.1 wt %
- hygroscopicity (DVS analysis) (25° C., up to 95% RH): non-hygroscopic
- form change by XRPD analysis of the sample post DVS analysis (post DVS): no form change
